The values that follow come from US11299488B2, “Five membered-aminoheterocycle and 5,6-or 6,6-membered bicyclic aminoheterocyclic inhibitors of rock for the treatment of heart failure” (BRISTOL-MYERS SQUIBB COMPANY, priority 2017, dated 2022).

Each structure is given as a SMILES string.

In assay [1] the test system is congestive heart failure in Dahl salt-sensitive rats. The conditions noted are these: rat, in vivo; cited from earlier work.
In assay [2] the test system is spontaneously hypertensive rat, renal hypertensive rat and deoxycortisone acetate salt hypertensive rat models. The conditions noted are these: cited from earlier work.
The subject of assay [3] is neointimal formation. The conditions noted are these: rats, similar model to balloon injury; cited from earlier work.
Assay [4] concerns IL-1 beta-induced coronary stenosis. The conditions noted are these: long term treatment; cited from earlier work.
The subject of assay [5] is rat stroke model. The conditions noted are these: in vivo; cited from earlier work.
Assay [6] has as its target ROCK2 (Homo sapiens (Human), UniProt O75116). Put plainly: ROCK assay (Caliper LABCHIP peptide phosphorylation, 5 μM ATP). The assay is classed as biochemical. The method, then:
The effectiveness of compounds of the present invention as ROCK inhibitors can be determined in a 30 μL assay containing 20 mM HEPES, pH 7.5, 20 mM MgCl2, 0.015% Brij-35, 4 mM DTT, 5 μM ATP and 1.5 μM peptide substrate (FITC-AHA-AKRRRLSSLRA-OH) (SEQ ID No. 1). Compounds were dissolved in DMSO so that the final concentration of DMSO was <2%, and the reaction was initiated with Rho kinase variants. After incubation, the reaction was terminated by the addition of EDTA and the phosphorylated and non-phosphorylated peptides separated using a LABCHIP® 3000 Reader (Caliper Life Sciences). […] Compounds were tested in dose-response format, and the inhibition of kinase activity was calculated at each concentration of compound. The inhibition data were fit using a curve-fitting program to determine the IC50; i.e., the concentration of compound required to inhibit 50% of kinase activity. Representative Examples were tested in the ROCK assay described above and found having ROCK inhibitory activity. A range of ROCK inhibitory activity (IC50 values) of ≤50 μM (50000 nM) was observed. Table A below lists the ROCK IC50 values measured for the following examples.

Chain of ROCK2 (O75116 whole entry, species assumed): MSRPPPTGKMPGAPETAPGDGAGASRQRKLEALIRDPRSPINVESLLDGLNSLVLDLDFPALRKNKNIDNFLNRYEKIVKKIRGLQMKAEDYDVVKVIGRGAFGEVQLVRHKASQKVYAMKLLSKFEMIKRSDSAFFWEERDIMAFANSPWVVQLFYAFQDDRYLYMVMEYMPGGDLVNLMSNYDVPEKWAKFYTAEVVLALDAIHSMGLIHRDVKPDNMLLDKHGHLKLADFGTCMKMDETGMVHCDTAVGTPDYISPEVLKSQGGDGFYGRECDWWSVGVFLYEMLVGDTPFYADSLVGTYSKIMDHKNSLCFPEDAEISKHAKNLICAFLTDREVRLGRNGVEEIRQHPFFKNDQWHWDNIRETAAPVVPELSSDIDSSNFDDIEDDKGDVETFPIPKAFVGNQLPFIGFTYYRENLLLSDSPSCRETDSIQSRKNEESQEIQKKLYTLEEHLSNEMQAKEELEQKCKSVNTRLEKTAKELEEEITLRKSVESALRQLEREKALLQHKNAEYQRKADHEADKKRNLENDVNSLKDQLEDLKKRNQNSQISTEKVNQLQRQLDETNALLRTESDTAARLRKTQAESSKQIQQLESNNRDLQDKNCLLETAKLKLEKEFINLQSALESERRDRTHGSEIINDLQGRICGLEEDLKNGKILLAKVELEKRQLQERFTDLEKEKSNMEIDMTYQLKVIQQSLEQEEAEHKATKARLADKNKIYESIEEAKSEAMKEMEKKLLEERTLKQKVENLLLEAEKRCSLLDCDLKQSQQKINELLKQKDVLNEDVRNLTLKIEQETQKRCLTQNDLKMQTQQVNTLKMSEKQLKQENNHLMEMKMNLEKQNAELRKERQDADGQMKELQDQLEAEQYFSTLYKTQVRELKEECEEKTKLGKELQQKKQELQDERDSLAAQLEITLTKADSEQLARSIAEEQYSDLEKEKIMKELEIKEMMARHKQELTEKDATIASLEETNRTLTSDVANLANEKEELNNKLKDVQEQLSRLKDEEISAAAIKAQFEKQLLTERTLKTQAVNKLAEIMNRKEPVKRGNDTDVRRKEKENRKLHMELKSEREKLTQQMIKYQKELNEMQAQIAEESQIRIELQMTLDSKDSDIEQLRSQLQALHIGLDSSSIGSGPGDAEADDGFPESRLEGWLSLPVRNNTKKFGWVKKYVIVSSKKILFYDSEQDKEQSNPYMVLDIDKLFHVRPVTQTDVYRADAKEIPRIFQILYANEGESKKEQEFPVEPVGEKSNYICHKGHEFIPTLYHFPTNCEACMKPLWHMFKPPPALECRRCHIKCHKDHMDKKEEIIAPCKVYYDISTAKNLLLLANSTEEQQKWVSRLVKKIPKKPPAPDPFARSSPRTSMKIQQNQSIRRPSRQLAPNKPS

In the case of `C[C@@H](N)[C@H]1CC[C@H](C(=O)Nc2ccncc2)CC1` [Example Y-27632, Y-27632], the “ventricular hypertrophy, fibrosis and function” value in assay [1] was “improve ventricular hypertrophy, fibrosis and function”. In addition, the “blood pressure in control rats” value in assay [2] (control rats) is reported as “only a minor effect on blood pressure”. The blood pressure result in assay [2] (three rat models of hypertension) is given as “significantly decrease blood pressure”. Moreover, the neointimal formation entry in assay [3] was “inhibited neointimal formation”.

For the compound `O=S(=O)(c1cccc2cnccc12)N1CCCNCC1` [fasudil], in assay [4], the coronary constrictive remodeling entry is on record as “promote a regression of coronary constrictive remodeling” and the coronary stenosis result is recorded as “progressively reduce coronary stenosis”. Besides, the “infarct size and neurologic deficit” value in assay [5] was “reduce both the infarct size and neurologic deficit”.

One may read the IC50 as the concentration needed to halve the response being measured. The compound `NC(=O)c1cccnc1O[C@H]1C[C@@]2(C[C@H](Nc3nc(-c4ccccc4F)cs3)C2)C1` (stereo partly drawn) [Example 11, 2-(((2S,4s,6S)-6-((4-(2-fluorophenyl)thiazol-2-yl)amino)spiro [3.3]heptan-2-yl)oxy)nicotinamide] came in with an IC50 in assay [6] of 1160 nM.

As for `NC(=O)c1cccnc1O[C@H]1C[C@@]2(C[C@H](Nc3nc4ccc(Cl)cc4s3)C2)C1` (stereo partly drawn) [Example 3, 2-(((2S,4s,6S)-6-((6-chlorobenzo[d]thiazol-2-yl)amino)spiro[3.3]heptan-2-yl)oxy)nicotinamide], the IC50 in assay [6] stood at 268 nM.

`[H][C@]1(Oc2ncccc2C(N)=O)C[C@]2(C[C@@H](Nc3nccc(N4CCC(C(F)(F)F)CC4)n3)C2)C1` (stereo partly drawn) [Example 43, 2-(((2S,4s,6S)-6-((4-(4-(trifluoro-methyl)piperidin-1-yl)pyrimidin-2-yl)amino)spiro[3.3]heptan-2-yl)oxy) nicotinainide] gave an IC50 in assay [6] of 165 nM.

`NC(=O)c1cccnc1OC1CC2(CC(Nc3ncc4cc(Br)ccc4n3)C2)C1` [Example 35, 2-(((2S,4s,6S)-6-((6-bromo-quinazolin-2-yl)amino)spiro[3.3]heptan-2-yl)oxy) nicotinamide] displayed an IC50 in assay [6] of 192 nM.
